Reference: publication PMC3209665 (Chemical biology & drug design, 2009)

Experiment: Solubility in ITC buffer
Format: physicochemical
Conditions: 10 mM sodium acetate, pH 5.0, 2% DMSO

KNI-10006
solubility: limited solubility
